Values quoted from earlier work in patent publication US11013707B2, “Administration of oral methyldopa” (ImmunoMolecular Therapeutics, LLC., priority 2018, dated 2021).
Like-named read-outs stand apart in the source and are kept apart here.

Columns and labels:
[1] = in vivo
[2] = man, average

| absorption compared with the L isomer (humans, Au et al. 1972) | half-life [1] | fraction of the dose available to the systemic circulation as free α-methyldopa ([2]; administered as tablets) [%] | fraction of the dose available to the systemic circulation as free α-methyldopa ([2]; after an oral solution) [%] | SMILES | pharmacologic activity (literature, patients with hypertension) |
| --- | --- | --- | --- | --- | --- |
| much less readily absorbed |  |  |  | C[C@@](N)(Cc1ccc(O)c(O)c1)C(=O)O [D-α-methyldopa, D-α-Methyl-3,4-dihydroxyphenylalanine] | no pharmacologic activity |
|  | about 105 minutes | 27 | 25 | C[C@](N)(Cc1ccc(O)c(O)c1)C(=O)O [α-methyldopa, L-α-Methyl-3,4-dihydroxyphenylalanine] |  |
